The text below walks through data of patent publication US8188078B2 (Sanofi-Aventis, priority 2007, dated 2012).

The test deals with T1, MET (Homo sapiens, UniProt P08581).
T1 construct: endogenous in cells; host or cells: MKN45 cells
The test is described as follows: Test C: inhibition of the autophosphorylation of MET, ELISA technique (pppY1230, 1234, 1235), MKN45 cells. The class given is cell-based. An outline of the steps:
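MKN45 cells adhered 24 h, then treated 1 h with compound at 6 concentrations in duplicate, final range 10000 to 30 nM. Lysates assayed by phospho-MET (pY1230/1234/1235) sandwich ELISA with HRP chromogen read at 450 nm.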
(An ELISA detects its analyte on a solid surface through an enzyme-linked reagent.)

T1 sequence (P08581 25-1390): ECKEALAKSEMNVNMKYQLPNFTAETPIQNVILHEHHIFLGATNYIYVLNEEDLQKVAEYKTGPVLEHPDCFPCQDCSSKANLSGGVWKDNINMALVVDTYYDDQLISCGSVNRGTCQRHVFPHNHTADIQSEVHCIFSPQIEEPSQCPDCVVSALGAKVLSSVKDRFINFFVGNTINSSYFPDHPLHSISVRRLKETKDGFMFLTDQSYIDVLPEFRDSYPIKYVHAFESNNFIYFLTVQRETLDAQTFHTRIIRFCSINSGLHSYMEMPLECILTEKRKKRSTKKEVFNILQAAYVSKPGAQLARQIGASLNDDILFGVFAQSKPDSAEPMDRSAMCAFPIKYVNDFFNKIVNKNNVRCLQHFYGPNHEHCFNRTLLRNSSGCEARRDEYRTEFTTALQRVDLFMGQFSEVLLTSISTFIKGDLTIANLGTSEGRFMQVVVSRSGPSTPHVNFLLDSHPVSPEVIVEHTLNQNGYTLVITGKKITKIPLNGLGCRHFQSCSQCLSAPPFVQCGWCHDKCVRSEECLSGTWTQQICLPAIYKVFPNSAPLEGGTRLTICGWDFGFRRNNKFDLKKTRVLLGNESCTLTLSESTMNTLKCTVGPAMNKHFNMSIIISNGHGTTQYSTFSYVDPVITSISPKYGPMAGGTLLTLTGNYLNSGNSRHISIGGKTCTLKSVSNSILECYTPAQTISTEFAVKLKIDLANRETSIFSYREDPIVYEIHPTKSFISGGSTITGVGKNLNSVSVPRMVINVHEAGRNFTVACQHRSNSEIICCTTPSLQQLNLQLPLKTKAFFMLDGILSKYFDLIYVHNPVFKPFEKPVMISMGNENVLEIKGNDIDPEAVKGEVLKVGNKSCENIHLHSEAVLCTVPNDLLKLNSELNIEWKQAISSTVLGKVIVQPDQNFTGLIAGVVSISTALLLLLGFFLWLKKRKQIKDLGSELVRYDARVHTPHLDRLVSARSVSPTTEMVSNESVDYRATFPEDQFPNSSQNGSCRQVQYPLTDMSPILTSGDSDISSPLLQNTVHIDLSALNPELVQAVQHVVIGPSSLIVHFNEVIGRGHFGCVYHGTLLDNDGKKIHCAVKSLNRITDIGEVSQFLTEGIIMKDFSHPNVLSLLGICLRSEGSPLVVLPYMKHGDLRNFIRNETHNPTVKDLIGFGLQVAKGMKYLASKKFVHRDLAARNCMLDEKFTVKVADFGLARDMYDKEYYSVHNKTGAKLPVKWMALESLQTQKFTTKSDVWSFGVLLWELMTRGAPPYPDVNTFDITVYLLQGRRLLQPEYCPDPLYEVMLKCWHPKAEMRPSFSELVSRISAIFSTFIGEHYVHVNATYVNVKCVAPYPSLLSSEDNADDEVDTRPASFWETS

Consider `CC(Oc1cc2sc(NC(=O)NCCN3CCN(C)CC3)nc2cc1F)c1c(Cl)ccc(F)c1Cl` (single isomer, unassigned) [Example 76, 1-{6-[(1R*)-1-(2,6-dichloro-3-fluorophenyl)ethoxy]-5-fluoro-1,3-benzothiazol-2-yl}-3-[2-(4-methylpiperazin-1-yl)ethyl]urea], for which the IC50 (as a rule, the point on the concentration scale where inhibition reaches its midpoint) is below 500 nM.
The figure for `CC(Oc1cc2sc(NC(=O)NCCN3CCN(C)CC3)nc2cc1F)c1c(Cl)ccc(F)c1Cl` (single isomer, unassigned) [Example 77, 1-{6-[(1S*)-1-(2,6-dichloro-3-fluorophenyl)ethoxy]-5-fluoro-1,3-benzothiazol-2-yl}-3-[2-(4-methylpiperazin-1-yl)ethyl]urea] is 500 to 10000 nM.
In the case of `CC(Oc1cc2sc(NC(=O)NCCN3CCCC3)nc2cc1F)c1c(Cl)ccc(F)c1Cl` (single isomer, unassigned) [Example 85, 1-{6-[(1R*)-1-(2,6-dichloro-3-fluorophenyl)ethoxy]-5-fluoro-1,3-benzothiazol-2-yl}-3-[2-(pyrrolidin-1-yl)ethyl]urea] it was below 500 nM; in that of `CC(Oc1cc2sc(NC(=O)NCCN)nc2cc1F)c1c(Cl)ccc(F)c1Cl` (single isomer, unassigned) [Example 89, 1-(2-aminoethyl)-3-{6-[(1R*)-1-(2,6-dichloro-3-fluorophenyl)ethoxy]-5-fluoro-1,3-benzothiazol-2-yl}urea], below 500 nM.
For `CC(Oc1cc2[nH]c(NC(=O)NCCN3CCOCC3)nc2cc1F)c1c(Cl)ccc(F)c1Cl` (stereo not shown) [Example 6, 1-{6-[1-(2,6-dichloro-3-fluorophenyl)ethoxy]-5-fluoro-1H-benzimidazol-2-yl}-3-(2-morpholin-4-ylethyl)urea], the IC50 is below 500 nM.
Turning to `O=C(Nc1nc2ccc(OCc3c(Cl)cccc3Cl)cc2[nH]1)C1CC1` [Example 7, N-{6-[(2,6-dichlorobenzyl)oxy]-1H-benzimidazol-2-yl}cyclopropane carboxamide], the IC50 was 500 to 10000 nM.
In the case of `CC(Oc1cc2sc(NC(=O)NCCN3CCN(C)CC3)nc2cc1F)c1c(Cl)ccc(F)c1Cl` (stereo not shown) [Example 75, 1-{6-[1-(2,6-dichloro-3-fluorophenyl)ethoxy]-5-fluoro-1,3-benzothiazol-2-yl}-3-[2-(4-methylpiperazin-1-yl)ethyl]urea] it was below 500 nM.
The figure for `CC(Oc1cc2sc(NC(=O)NCCCN3CCCC3=O)nc2cc1F)c1c(Cl)ccc(F)c1Cl` (stereo not shown) [Example 78, 1-{6-[1-(2,6-dichloro-3-fluorophenyl)ethoxy]-5-fluoro-1,3-benzothiazol-2-yl}-3-[3-(2-oxopyrrolidin-1-yl)propyl]urea] is below 500 nM; for `CC(Oc1cc2sc(NC(=O)NCCC3CCCN3C)nc2cc1F)c1c(Cl)ccc(F)c1Cl` (stereo not shown) [Example 79, 1-{6-[1-(2,6-dichloro-3-fluorophenyl)ethoxy]-5-fluoro-1,3-benzothiazol-2-yl}-3-[2-(1-methylpyrrolidin-2-yl)ethyl]urea] it is below 500 nM.
The figure for `COCCNC(=O)Nc1nc2cc(F)c(OC(C)c3c(Cl)ccc(F)c3Cl)cc2s1` (stereo not shown) [Example 81, 1-{6-[1-(2,6-dichloro-3-fluorophenyl)ethoxy]-5-fluoro-1,3-benzothiazol-2-yl}-3-(2-methoxyethyl)urea] is below 500 nM.
Turning to `CCN(CC)CCNC(=O)Nc1nc2ccc(OC(C)c3c(Cl)ccc(F)c3Cl)cc2s1` (stereo not shown) [Example 82, 1-{6-[1-(2,6-dichloro-3-fluorophenyl)ethoxy]-1,3-benzothiazol-2-yl}-3-[2-(diethylamino)ethyl]urea], the IC50 was below 500 nM.
In the case of `CCN(CC)CCCNC(=O)Nc1nc2ccc(OC(C)c3c(Cl)ccc(F)c3Cl)cc2s1` (stereo not shown) [Example 83, 1-{6-[1-(2,6-dichloro-3-fluorophenyl)ethoxy]-1,3-benzothiazol-2-yl}-3-[3-(diethylamino)propyl]urea] it was below 500 nM; in that of `CC(Oc1cc2sc(NC(=O)NCCN3CCCC3)nc2cc1F)c1c(Cl)ccc(F)c1Cl` (stereo not shown) [Example 84, 1-{6-[1-(2,6-dichloro-3-fluorophenyl)ethoxy]-5-fluoro-1,3-benzothiazol-2-yl}-3-[2-(pyrrolidin-1-yl)ethyl]urea], below 500 nM; in that of `CC(Oc1cc2sc(NC(=O)NCCN)nc2cc1F)c1c(Cl)ccc(F)c1Cl` (stereo not shown) [Example 88, 1-(2-aminoethyl)-3-{6-[1-(2,6-dichloro-3-fluorophenyl)ethoxy]-5-fluoro-1,3-benzothiazol-2-yl}urea], below 500 nM.
Molecule `CC(Oc1cc2sc(NC(=O)NCCN(C)Cc3ccccc3)nc2cc1F)c1c(Cl)ccc(F)c1Cl` (stereo not shown) [Example 94, 1-{2-[benzyl(methyl)amino]ethyl}-3-{6-[1-(2,6-dichloro-3-fluorophenyl)ethoxy]-5-fluoro-1,3-benzothiazol-2-yl}urea] had an IC50 of 500 to 10000 nM.
In the case of `CC(Oc1cc2sc(NC(=O)NCCN(C)C(=O)OC(C)(C)C)nc2cc1F)c1c(Cl)ccc(F)c1Cl` (stereo not shown) [Example 95] it was 500 to 10000 nM; in that of `CNCCNC(=O)Nc1nc2cc(F)c(OC(C)c3c(Cl)ccc(F)c3Cl)cc2s1` (stereo not shown) [Example 96, 1-{6-[1-(2,6-dichloro-3-fluorophenyl)ethoxy]-5-fluoro-1,3-benzothiazol-2-yl}-3-[2-(methylamino)ethyl]urea], below 500 nM.
The figure for `CC(Oc1cc2sc(NC(=O)NCCOCc3ccccc3)nc2cc1F)c1c(Cl)ccc(F)c1Cl` (stereo not shown) [Example 97, 1-[2-(benzyloxy)ethyl]-3-{6-[1-(2,6-dichloro-3-fluorophenyl)ethoxy]-5-fluoro-1,3-benzothiazol-2-yl}urea] is 500 to 10000 nM; for `CC(Oc1cc2sc(NC(=O)NCCO)nc2cc1F)c1c(Cl)ccc(F)c1Cl` (stereo not shown) [Example 98, 1-{6-[1-(2,6-dichloro-3-fluorophenyl)ethoxy]-5-fluoro-1,3-benzothiazol-2-yl}-3-(2-hydroxyethyl)urea] it is below 500 nM.
